From patent US11672871B2, “Peptide oligonucleotide conjugates” (Sarepta Therapeutics, Inc., priority 2015, dated 2023) come the findings set out here.

The data set has as its system HeLa-654 cells. Description: HeLa cell assay: e-GFP fluorescence from exon skipping / cellular delivery, by flow cytometry. The format is cell-based. The note with it: Accuri C6 flow cytometer, signal reflects exon skipping and cellular uptake. The method, then:
The height of the green fluorescent signal bars indicate different intensities based on the level of exon skipping that occurs in the nucleus of HeLa-654 cells, whether the cells are treated or untreated with test compounds. The signal intensity or size of the bar also corresponds to the effectiveness of cellular uptake (that is, delivery into the cell). […] The various treatment regimens include continuous treatment of HeLa-654 cells over time or pulse-chase treatments where a test compound is incubated with cells and then after a period of time (3 hours) is washed away from the cells and fresh, test compound-free media is added.
Results: The baseline activity of unconjugated PMO and untreated cells is shown. The peptide/PMO (PPMO) conjugates of the present disclosure all show greater cellular uptake than: 1) unconjugated PMO, and 2) untreated cells (which reveal the green fluorescent background signal). This difference in fluorescence intensity between the peptide/PMO conjugates of the present invention and the background or unconjugated-PMO indicates significant pharmacological activity of the stapled peptide/PMO conjugates.
In general terms: Flow cytometry measures light scatter and fluorescence of single cells or particles in a stream.

Consider “PPMO 3: (i, i+4) hexafluorobenzene-stapled peptide-PMO conjugate, sequence SEQ ID NO: 9 (GCTATTACCTTAACCCAG; all phosphorodiamidate morpholino (PMO); stapled cell-penetrating peptide conjugated to PMO)”, for which the “Mean FL1-H (mean fluorescence intensity of e-GFP)” value is listed as 123,401.08.
